Where two headings read alike, the source gives them in different places.
Assay: in vivo
Assay type: in vivo, mice
[1] = male, CD-1, mouse, plasma, ip, 10 mg/kg, mice, IP 10 mg/kg, plasma, mean of 3 animals, read-out: Plasma concentration C (mean)
[2] = male, CD-1, mouse, plasma, ip, 10 mg/kg, mice, IP 10 mg/kg, plasma, single animal, D=1, read-out: Final plasma concentration, individual sample
[3] = male, CD-1, mouse, plasma, iv, 10 mg/kg, mice, IV 10 mg/kg, plasma, single animals, read-out: Plasma concentration, Final (individual mouse)
[4] = male, CD-1, mouse, plasma, iv, 10 mg/kg, mice, IV 10 mg/kg, plasma, read-out: Plasma concentration C (mean)
[5] = male, CD-1, mouse, plasma, po, 30 mg/kg, mice, PO 30 mg/kg, plasma, read-out: Plasma concentration C (mean)
[6] = male, CD-1, mouse, plasma, po, 30 mg/kg, mice, PO 30 mg/kg, plasma, single animals, read-out: Plasma concentration, Final (individual mouse)

O=C([O-])C1CCC2(CC1)CC(Nc1ncnc3[nH]c4c(F)cccc4c13)C2.[Na+] (centres unmarked) [Compound 77, [Na+].[O-]C(=O)C1CCC2(CC(C2)NC=3N=CN=C4NC=5C(F)=CC=CC5C34)CC1]
concentrations in blood compared to CJ-42794 (10 mg/kg i.p., two to four hours after injection): higher concentrations in blood two to four hours after injection | concentration at 5 min [1]: 2420 ng/mL | concentration at 5 min [2]: 2380 ng/mL | concentration at 15 min [1]: 7250 ng/mL | concentration at 15 min [2]: 6880 ng/mL | concentration at 30 min [1]: 6710 ng/mL | concentration at 30 min [2]: 8130 ng/mL | concentration at 60 min [1]: 9910 ng/mL | concentration at 60 min [2]: 10900 ng/mL | concentration at 120 min [1]: 6380 ng/mL | concentration at 240 min [1]: 3590 ng/mL | concentration at 360 min [1]: 1980 ng/mL | concentration at 360 min [2]: 1660 ng/mL | concentration at 480 min [1]: 753 ng/mL | concentration at 480 min [2]: 889 ng/mL | concentration at 1440 min [1]: 17 ng/mL | concentration at 1440 min [2]: 18.9 ng/mL | Cmax (male, CD-1, mouse, plasma, ip, 10 mg/kg i.p., mice): 9910 ng/mL | AUC (male, CD-1, mouse, plasma, ip, 10 mg/kg i.p., mice, read-out: plasma AUC (converted)): 39500 ng·h/mL | concentration at 5 min [3]: 24100 ng/mL | concentration at 5 min [4]: 26200 ng/mL | concentration at 15 min [3]: 14400 ng/mL | concentration at 15 min [4]: 17000 ng/mL | concentration at 30 min [3]: 10900 ng/mL | concentration at 30 min [4]: 12700 ng/mL | concentration at 60 min [3]: 11000 ng/mL | concentration at 60 min [4]: 10500 ng/mL | concentration at 120 min [3]: 4760 ng/mL | concentration at 120 min [4]: 4090 ng/mL | concentration at 240 min [3]: 2370 ng/mL | concentration at 240 min [4]: 2080 ng/mL | concentration at 360 min [3]: 1260 ng/mL | concentration at 360 min [4]: 1730 ng/mL | concentration at 480 min [4]: 1240 ng/mL | concentration at 1440 min [4]: 43.2 ng/mL | AUC (male, CD-1, mouse, plasma, iv, 10 mg/kg i.v., mice, read-out: AUC (converted)): 46200 ng·h/mL | bioavailability (male, CD-1, mouse, plasma, oral, 30 mg/kg p.o. vs 10 mg/kg i.v., mice): 78% | concentration at 5 min [5]: 4340 ng/mL | concentration at 15 min [6]: 17600 ng/mL | concentration at 15 min [5]: 24200 ng/mL | concentration at 30 min [6]: 23000 ng/mL
